Reference: PMC5218480 (PLoS ONE, 2017)

Tested on: MV-4-11 cells
Assay: Gene expression microarray analysis (Affymetrix PrimeView) and GSEA
Assay type: cell-based, human
Set-up: RFU PODN (11730768_x_at) / Fold change /veh PODN (11730768_x_at) / RFU LINC00158 (11744669_a_at) / Fold change /veh LINC00158 (11744669_a_at) / RFU DUSP10 (11751237_a_at) / Fold change /veh DUSP10 (11751237_a_at) / RFU ID3 (11757404_x_at) / Fold change /veh ID3 (11757404_x_at) / RFU PLEKHG5 (11737974_s_at) / Fold change /veh PLEKHG5 (11737974_s_at) / RFU LRRC4B (11730491_at) / Fold change /veh LRRC4B (11730491_at) / RFU GIMAP4 (11747438_a_at) / Fold change /veh GIMAP4 (11747438_a_at) / RFU KRT8 (11758183_x_at) / Fold change /veh KRT8 (11758183_x_at) / RFU CNN1 (11734310_a_at) / Fold change /veh CNN1 (11734310_a_at) / RFU VPS37D (11726825_at) / Fold change /veh VPS37D (11726825_at) / RFU C10orf10 (11716522_x_at) / Fold change /veh C10orf10 (11716522_x_at) / RFU KIR2DL2 /// KIR2DL4 /// KIR2DL5A /// KIR2DL5B /// KIR2DS1 /// KIR2DS2 /// KIR2DS3 /// KIR2DS4 /// KIR3DL3 /// KIR3DL3 /// KIR3DS1 (11738374_at) / Fold change /veh KIR2DL2 /// KIR2DL4 /// KIR2DL5A /// KIR2DL5B /// KIR2DS1 /// KIR2DS2 /// KIR2DS3 /// KIR2DS4 /// KIR3DL3 /// KIR3DL3 /// KIR3DS1 (11738374_at) / RFU C1QL1 (11718748_at) / Fold change /veh C1QL1 (11718748_at) / RFU TMPRSS4 (11747572_a_at) / Fold change /veh TMPRSS4 (11747572_a_at) / RFU HAMP (11756126_x_at) / Fold change /veh HAMP (11756126_x_at) / RFU RNFT2 (11725882_a_at) / Fold change /veh RNFT2 (11725882_a_at) / RFU NR4A2 (11747474_a_at) / Fold change /veh NR4A2 (11747474_a_at) / RFU ABCC12 (11746883_a_at) / Fold change /veh ABCC12 (11746883_a_at) / RFU TMEM136 (11760407_x_at) / Fold change /veh TMEM136 (11760407_x_at) / RFU CLDN22 /// WWC2 (11732394_at) / Fold change /veh CLDN22 /// WWC2 (11732394_at) / RFU HLA-DPB1 (11760878_x_at) / Fold change /veh HLA-DPB1 (11760878_x_at) / RFU SPINT1 (11716480_a_at) / Fold change /veh SPINT1 (11716480_a_at) / RFU GAP43 (11754022_s_at) / Fold change /veh GAP43 (11754022_s_at) / RFU A4GNT (11735810_at) / Fold change /veh A4GNT (11735810_at) / RFU PRB3 (11715151_x_at) / Fold change /veh PRB3 (11715151_x_at) / RFU TUBB4B (11761932_at) / Fold change /veh TUBB4B (11761932_at) / RFU CAPN14 (11732068_a_at) / Fold change /veh CAPN14 (11732068_a_at) / RFU TMCC2 (11721928_a_at) / Fold change /veh TMCC2 (11721928_a_at) / RFU IRGQ (11745062_a_at) / Fold change /veh IRGQ (11745062_a_at) / RFU FAM174B (11720279_a_at) / Fold change /veh FAM174B (11720279_a_at) / RFU TMPRSS4 (11748680_a_at) / Fold change /veh TMPRSS4 (11748680_a_at) / RFU FAM212B (11763350_a_at) / Fold change /veh FAM212B (11763350_a_at) / RFU PLEKHG5 (11743358_a_at) / Fold change /veh PLEKHG5 (11743358_a_at) / RFU ZSCAN30 (11745921_a_at) / Fold change /veh ZSCAN30 (11745921_a_at) / RFU CMKLR1 (11741424_a_at) / Fold change /veh CMKLR1 (11741424_a_at) / RFU LOC101060620 /// MAPK8IP1 (11723275_at) / Fold change /veh LOC101060620 /// MAPK8IP1 (11723275_at) / RFU SPTSSB (11747773_x_at) / Fold change /veh SPTSSB (11747773_x_at) / RFU PRSS12 (11739890_at) / Fold change /veh PRSS12 (11739890_at) / RFU BIN1 (11741810_x_at) / Fold change /veh BIN1 (11741810_x_at) / RFU WNT11 (11732464_a_at) / Fold change /veh WNT11 (11732464_a_at) / RFU C10orf10 (11716521_a_at) / Fold change /veh C10orf10 (11716521_a_at) / RFU C5orf56 (11738089_at) / Fold change /veh C5orf56 (11738089_at) / RFU CYB561 (11721691_x_at) / Fold change /veh CYB561 (11721691_x_at) / RFU ANKRD19P (11752326_a_at) / Fold change /veh ANKRD19P (11752326_a_at) / RFU OR2T12 /// OR2T33 /// OR2T8 (11738714_s_at) / Fold change /veh OR2T12 /// OR2T33 /// OR2T8 (11738714_s_at) / RFU VCAN (11748164_a_at) / Fold change /veh VCAN (11748164_a_at) / RFU JSRP1 (11732532_at) / Fold change /veh JSRP1 (11732532_at) / RFU KRTAP10-11 (11738290_x_at) / Fold change /veh KRTAP10-11 (11738290_x_at) / RFU MYO3A (11730013_a_at) / Fold change /veh MYO3A (11730013_a_at) / RFU EBF3 (11725865_a_at) / Fold change /veh EBF3 (11725865_a_at) / RFU CAMK2N1 (11719241_x_at) / Fold change /veh CAMK2N1 (11719241_x_at) / RFU C5orf56 (11738088_a_at) / Fold change /veh C5orf56 (11738088_a_at) / RFU OLFML3 (11715873_a_at) / Fold change /veh OLFML3 (11715873_a_at) / RFU LOC100653217 /// NTM (11731650_a_at) / Fold change /veh LOC100653217 /// NTM (11731650_a_at) / RFU MAPK11 (11762145_a_at) / Fold change /veh MAPK11 (11762145_a_at) / RFU FIZ1 (11724087_x_at) / Fold change /veh FIZ1 (11724087_x_at) / RFU OASL (11726364_x_at) / Fold change /veh OASL (11726364_x_at) / RFU SOX15 (11748057_x_at) / Fold change /veh SOX15 (11748057_x_at) / RFU CD79A (11719716_a_at) / Fold change /veh CD79A (11719716_a_at) / RFU HIST1H1D (11736915_at) / Fold change /veh HIST1H1D (11736915_at) / RFU CASKIN2 (11723855_a_at) / Fold change /veh CASKIN2 (11723855_a_at) / RFU LOC730098 (11760151_x_at) / Fold change /veh LOC730098 (11760151_x_at) / RFU OR4N2 (11742367_at) / Fold change /veh OR4N2 (11742367_at) / RFU PRRT2 (11749266_a_at) / Fold change /veh PRRT2 (11749266_a_at) / RFU SNX32 (11753110_a_at) / Fold change /veh SNX32 (11753110_a_at) / RFU CDHR5 (11726645_a_at) / Fold change /veh CDHR5 (11726645_a_at) / RFU RCAN1 (11760418_a_at) / Fold change /veh RCAN1 (11760418_a_at) / RFU FAM167A (11723789_a_at) / Fold change /veh FAM167A (11723789_a_at) / RFU FAM26E (11764081_at) / Fold change /veh FAM26E (11764081_at) / RFU ISYNA1 (11749810_s_at) / Fold change /veh ISYNA1 (11749810_s_at) / RFU ACY1 (11761880_at) / Fold change /veh ACY1 (11761880_at) / RFU 11764098_at / Fold change /veh 11764098_at / RFU SAMD14 (11745864_x_at) / Fold change /veh SAMD14 (11745864_x_at) / RFU NPB (11741838_a_at) / Fold change /veh NPB (11741838_a_at) / RFU TMPRSS6 (11731388_a_at) / Fold change /veh TMPRSS6 (11731388_a_at) / RFU KRTAP10-2 (11738614_at) / Fold change /veh KRTAP10-2 (11738614_at) / RFU ARHGAP8 /// PRR5-ARHGAP8 (11727945_x_at) / Fold change /veh ARHGAP8 /// PRR5-ARHGAP8 (11727945_x_at) / RFU KRTAP5-7 /// NADSYN1 (11734609_at) / Fold change /veh KRTAP5-7 /// NADSYN1 (11734609_at) / RFU RASL12 (11751679_a_at) / Fold change /veh RASL12 (11751679_a_at) / RFU CDKN2B (11736163_a_at) / Fold change /veh CDKN2B (11736163_a_at) / RFU PRF1 (11729649_at) / Fold change /veh PRF1 (11729649_at) / RFU, ZNF638 /// ZNF638-IT1 / Fold change vs veh, ZNF638 /// ZNF638-IT1 / RFU, PANK3 / Fold change vs veh, PANK3 / RFU, SH3YL1 / Fold change vs veh, SH3YL1 / RFU, ZEB2 / Fold change vs veh, ZEB2 / RFU, NRIP1 / Fold change vs veh, NRIP1 / RFU, PTTG1IP / Fold change vs veh, PTTG1IP / RFU, CAPN2 / Fold change vs veh, CAPN2 / RFU, MED14 / Fold change vs veh, MED14 / RFU, SNORA58 / Fold change vs veh, SNORA58 / RFU, C1orf63 / Fold change vs veh, C1orf63 / RFU, LRRFIP1 / Fold change vs veh, LRRFIP1 / RFU, NDUFAF7 / Fold change vs veh, NDUFAF7 / RFU, SLC12A2 / Fold change vs veh, SLC12A2 / RFU, IBTK / Fold change vs veh, IBTK / RFU, ESF1 / Fold change vs veh, ESF1 / Fold change vs veh, TMEM50B / RFU, TAOK1 / Fold change vs veh, TAOK1 / RFU, ACBD3 / Fold change vs veh, ACBD3 / RFU, TMA16 / Fold change vs veh, TMA16 / RFU, RWDD3 / Fold change vs veh, RWDD3 / RFU, BCAT1 / Fold change vs veh, BCAT1 / RFU, EDEM3 / Fold change vs veh, EDEM3 / RFU, TMEM33 / Fold change vs veh, TMEM33 / RFU, WDR75 / Fold change vs veh, WDR75 / RFU, AHCTF1 / Fold change vs veh, AHCTF1 / RFU, TFRC / Fold change vs veh, TFRC / RFU, ZDHHC17 / Fold change vs veh, ZDHHC17 / RFU, NOM1 / Fold change vs veh, NOM1 / RFU, ARL8B / Fold change vs veh, ARL8B / RFU, ZBTB11 / Fold change vs veh, ZBTB11 / RFU, TAMM41 / Fold change vs veh, TAMM41 / RFU, KIAA1704 /// LOC100996395 / Fold change vs veh, KIAA1704 /// LOC100996395 / RFU, ING1 / Fold change vs veh, ING1 / RFU, TRMT61B / Fold change vs veh, TRMT61B / RFU, FUBP3 / Fold change vs veh, FUBP3 / RFU, TP53 / Fold change vs veh, TP53 / RFU, TNKS2 / Fold change vs veh, TNKS2 / RFU, ZFP14 / Fold change vs veh, ZFP14 / RFU, ACTR2 / Fold change vs veh, ACTR2 / RFU, PPP3R1 / Fold change vs veh, PPP3R1 / RFU, PIK3R1 / Fold change vs veh, PIK3R1 / RFU, HNRNPA1 / Fold change vs veh, HNRNPA1 / RFU, RNF170 / Fold change vs veh, RNF170 / RFU, ZNF28 / Fold change vs veh, ZNF28 / RFU, RNGTT / Fold change vs veh, RNGTT / RFU, OGT / Fold change vs veh, OGT / RFU, BRD1 / Fold change vs veh, BRD1 / RFU, MARS / Fold change vs veh, MARS / RFU, ZNF655 / Fold change vs veh, ZNF655 / RFU, FAHD1 / Fold change vs veh, FAHD1 / RFU, BDP1 / Fold change vs veh, BDP1 / RFU, LRRCC1 / Fold change vs veh, LRRCC1 / RFU, ARID1A / Fold change vs veh, ARID1A / RFU, ZNF146 / Fold change vs veh, ZNF146 / RFU, ZNF330 / Fold change vs veh, ZNF330 / RFU, GPN3 / Fold change vs veh, GPN3 / RFU, C9orf123 / Fold change vs veh, C9orf123 / RFU, N4BP2L2 / Fold change vs veh, N4BP2L2 / RFU, ARFIP1 / Fold change vs veh, ARFIP1 / RFU, FAM179B / Fold change vs veh, FAM179B / RFU, BCL10 / Fold change vs veh, BCL10 / RFU, UHRF1BP1L / Fold change vs veh, UHRF1BP1L / RFU, BET1 / Fold change vs veh, BET1 / RFU, CNOT2 / Fold change vs veh, CNOT2 / RFU, ZNF268 / Fold change vs veh, ZNF268 / Fold change vs veh, ZNF507 / RFU, DGCR2 / Fold change vs veh, DGCR2 / RFU, WDSUB1 / Fold change vs veh, WDSUB1 / Fold change vs veh, HSP90B1 /// MIR3652 / RFU, ADSS / Fold change vs veh, ADSS / RFU, GK / Fold change vs veh, GK / RFU, ZNF148 / Fold change vs veh, ZNF148 / RFU, TAF9 / Fold change vs veh, TAF9 / RFU, SLC1A5 / Fold change vs veh, SLC1A5 / RFU, SLMO2 / Fold change vs veh, SLMO2 / RFU, ABCC4 / Fold change vs veh, ABCC4 / RFU, LOC101060439 /// RAP1B / Fold change vs veh, LOC101060439 /// RAP1B / RFU, RFX7 / Fold change vs veh, RFX7 / RFU, GTPBP10 / Fold change vs veh, GTPBP10 / RFU, CNEP1R1 / Fold change vs veh, CNEP1R1 / RFU, BIVM-ERCC5 /// ERCC5 / Fold change vs veh, BIVM-ERCC5 /// ERCC5 / RFU, ILF3 / Fold change vs veh, ILF3 / RFU 11762660_at / Fold change /veh 11762660_at / RFU VCAN (11757783_s_at) / Fold change /veh VCAN (11757783_s_at) / RFU DDX43 (11728927_at) / Fold change /veh DDX43 (11728927_at) / RFU KRT8 (11758188_x_at) / Fold change /veh KRT8 (11758188_x_at) / RFU NKD1 (11759106_at) / Fold change /veh NKD1 (11759106_at) / RFU SRD5A1 (11742802_a_at) / Fold change /veh SRD5A1 (11742802_a_at) / RFU TPSAB1 /// TPSB2 (11721975_s_at) / Fold change /veh TPSAB1 /// TPSB2 (11721975_s_at) / RFU GSTM3 (11746129_a_at) / Fold change /veh GSTM3 (11746129_a_at) / RFU IL23R (11737362_x_at) / Fold change /veh IL23R (11737362_x_at) / RFU TMEM51 (11727254_a_at) / Fold change /veh TMEM51 (11727254_a_at) / RFU PIWIL2 (11732686_x_at) / Fold change /veh PIWIL2 (11732686_x_at) / RFU ORM1 (11744905_x_at) / Fold change /veh ORM1 (11744905_x_at) / RFU CCDC152 (11743942_at) / Fold change /veh CCDC152 (11743942_at) / RFU ECM1 (11717891_a_at) / Fold change /veh ECM1 (11717891_a_at) / RFU IL23R (11748794_a_at) / Fold change /veh IL23R (11748794_a_at) / RFU TNFAIP8L3 (11732012_x_at) / Fold change /veh TNFAIP8L3 (11732012_x_at) / RFU MBOAT4 (11741988_at) / Fold change /veh MBOAT4 (11741988_at) / RFU 11764193_at / Fold change /veh 11764193_at / RFU TMEM53 (11763286_at) / Fold change /veh TMEM53 (11763286_at) / RFU MAGEB2 (11727129_at) / Fold change /veh MAGEB2 (11727129_at) / RFU TMEM200A (11744735_a_at) / Fold change /veh TMEM200A (11744735_a_at) / RFU CCDC152 (11751479_a_at) / Fold change /veh CCDC152 (11751479_a_at) / RFU FAM211A (11726209_a_at) / Fold change /veh FAM211A (11726209_a_at) / RFU RGS16 (11746705_a_at) / Fold change /veh RGS16 (11746705_a_at) / RFU VCAN (11755009_s_at) / Fold change /veh VCAN (11755009_s_at) / RFU RHOB (11743442_s_at) / Fold change /veh RHOB (11743442_s_at) / RFU RGS16 (11720943_a_at) / Fold change /veh RGS16 (11720943_a_at) / RFU RGS16 (11720944_at) / Fold change /veh RGS16 (11720944_at) / RFU, VPS4B / Fold change vs veh, VPS4B / RFU, CREB1 / Fold change vs veh, CREB1 / RFU, DNAJC13 / Fold change vs veh, DNAJC13 / RFU, GNAQ / Fold change vs veh, GNAQ / RFU, CDK5R1 / Fold change vs veh, CDK5R1 / RFU, ZRANB3 / Fold change vs veh, ZRANB3 / RFU, CUL4A / Fold change vs veh, CUL4A / RFU, CCNY / Fold change vs veh, CCNY / RFU, UFL1 / Fold change vs veh, UFL1 / RFU, COG3 / Fold change vs veh, COG3 / RFU, DIAPH2 / Fold change vs veh, DIAPH2 / RFU, SKA2 / Fold change vs veh, SKA2 / RFU, AFF3 / Fold change vs veh, AFF3 / RFU, LMF1 / Fold change vs veh, LMF1 / RFU, IPO11 / Fold change vs veh, IPO11 / RFU, DFFB / Fold change vs veh, DFFB / RFU, FOXP1 / Fold change vs veh, FOXP1 / RFU, CARD8 / Fold change vs veh, CARD8 / RFU, STRN3 / Fold change vs veh, STRN3 / RFU, ADK / Fold change vs veh, ADK / RFU, RASSF2 / Fold change vs veh, RASSF2 / RFU, WIPF1 / Fold change vs veh, WIPF1 / RFU, LARP1B / Fold change vs veh, LARP1B / RFU, RASA1 / Fold change vs veh, RASA1 / RFU, RB1 / Fold change vs veh, RB1 / RFU, PPFIA1 / Fold change vs veh, PPFIA1 / RFU, MAT2A / Fold change vs veh, MAT2A / RFU, CCT5 / Fold change vs veh, CCT5 / RFU, WDR92 / Fold change vs veh, WDR92 / RFU, CUX1 / Fold change vs veh, CUX1 / RFU, TTC7A / Fold change vs veh, TTC7A / RFU, TMEM135 / Fold change vs veh, TMEM135 / RFU, DEPTOR / Fold change vs veh, DEPTOR / RFU, CPM / Fold change vs veh, CPM / RFU, DNAJB6 / Fold change vs veh, DNAJB6 / RFU, CACNA2D3 / Fold change vs veh, CACNA2D3 / RFU, DTX4 / Fold change vs veh, DTX4 / RFU, TFCP2 / Fold change vs veh, TFCP2 / RFU, GMCL1 /// GMCL1P1 / Fold change vs veh, GMCL1 /// GMCL1P1 / RFU, AEBP2 / Fold change vs veh, AEBP2 / RFU, SNHG1 /// SNORD22 /// SNORD25 /// SNORD26 /// SNORD27 /// SNORD28 /// SNORD29 /// SNORD31 / Fold change vs veh, SNHG1 /// SNORD22 /// SNORD25 /// SNORD26 /// SNORD27 /// SNORD28 /// SNORD29 /// SNORD31 / Fold change (Aza/veh), C12orf56 (ProbeSet 11735607_a_at) / Fold change (ACY-1035/veh), C12orf56 (ProbeSet 11735607_a_at) / Fold change (Aza/veh), FGFR1OP (ProbeSet 11751329_s_at) / Fold change (ACY-1035/veh), FGFR1OP (ProbeSet 11751329_s_at) / Fold change (Aza/veh), VPS36 (ProbeSet 11739960_a_at) / Fold change (ACY-1035/veh), VPS36 (ProbeSet 11739960_a_at) / RFU SYPL1 (11715823_x_at) / Fold change /veh SYPL1 (11715823_x_at) / RFU IGFBP7 (11715501_s_at) / Fold change /veh IGFBP7 (11715501_s_at) / RFU REEP3 (11722064_at) / Fold change /veh REEP3 (11722064_at) / RFU IGLL1 (11728026_x_at) / Fold change /veh IGLL1 (11728026_x_at): dose or concentration left out as unconfirmed
Settings: ProbeSet 11747889_x_at; LIST B

## Nc1ncn([C@@H]2O[C@H](CO)[C@@H](O)[C@H]2O)c(=O)n1 [azacitidine]
  RFU, SH3YL1: 57.53 RFU
